Data: patent EP1077966B1, “BIPHENYL SULFONYL ARYL CARBOXYLIC ACIDS USEFUL IN THE TREATMENT OF INSULIN RESISTANCE AND HYPERGLYCEMIA” (Wyeth, priority 1998, dated 1999)
Marks after values point to notes of the source that are not given here.

What follows are molecules tested against T1, Human recombinant PTP1B (Homo sapiens, UniProt P18031) (assay: Inhibition of tri-phosphorylated insulin receptor dodecaphosphopeptide dephosphorylation by hPTP1B (malachite green-ammonium molybdate phosphate detection)). Settings: substrate phosphotyrosyl dodecapeptide […] (insulin receptor 1142-1153), 37°C, 30 min, pH 7.4.
T1 construct: made in house
T1 sequence (P18031 1-435): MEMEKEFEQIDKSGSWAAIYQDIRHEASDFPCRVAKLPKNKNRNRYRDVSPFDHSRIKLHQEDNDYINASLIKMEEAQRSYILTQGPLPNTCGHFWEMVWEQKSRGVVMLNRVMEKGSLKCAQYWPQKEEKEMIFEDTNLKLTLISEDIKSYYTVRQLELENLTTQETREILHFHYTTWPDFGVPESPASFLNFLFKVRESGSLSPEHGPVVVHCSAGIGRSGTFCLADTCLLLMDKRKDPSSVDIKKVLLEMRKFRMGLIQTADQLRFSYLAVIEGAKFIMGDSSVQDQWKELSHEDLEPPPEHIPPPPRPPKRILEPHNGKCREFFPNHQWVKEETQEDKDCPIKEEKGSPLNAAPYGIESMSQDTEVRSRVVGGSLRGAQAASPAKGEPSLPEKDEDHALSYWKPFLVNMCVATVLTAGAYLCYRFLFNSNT
Format: biochemical
With `O=C(O)c1ccc(S(=O)(=O)Oc2ccc(-c3ccc(-c4c(Cc5ccccc5)oc5ccccc45)cc3)cc2[N+](=O)[O-])cc1O` [Example 7, 4-[4'-(2-Benzyl-benzofuran-3-yl)-3-nitro-biphenyl-4-yloxysulfonyl]-2-hydroxy-benzoic acid] the IC50 was 29 nM. In the case of `O=C(O)c1ccc(S(=O)(=O)Oc2ccc(-c3ccc(-c4coc5ccccc45)cc3)cc2)cc1O` [Example 5], the IC50 is reported as 354 nM. `O=C(O)c1cc(S(=O)(=O)Oc2ccc(-c3ccc(-c4c(Cc5ccccc5)oc5ccccc45)cc3)cc2)ccc1O` [Example 2, 5-[4'-(2-Benzyl-benzofuran-3-yl)-biphenyl-4-yloxysulfonyl]-2-hydroxy-benzoic acid] gave an IC50 of 26 nM. In the case of `O=C(O)c1ccc(S(=O)(=O)Oc2c(Br)cc(-c3ccc(-c4c(Cc5ccccc5)sc5ccccc45)cc3)cc2Br)cc1O` [Example 13, 4-[4'-(2-Benzyl-benzo[b]thiophen-3-yl)-3,5-dibromo-biphenyl-4-yloxysulfonyl]-2-hydroxy-benzoic acid], the IC50 is reported as 30 nM. With `O=C(O)c1ccc(S(=O)(=O)Oc2ccc(-c3ccc(-c4c(C(=O)c5ccccc5)oc5ccccc45)cc3)cc2C2CCCC2)cc1O` [Example 9, 4-[4'-(2-Benzoyl-benzofuran-3-yl)-3-cyclopentyl-biphenyl-4-yloxysulfonyl]-2-hydroxy-benzoic acid] the IC50 was 40 nM. `Cc1sc(Cc2ccccc2)c(-c2ccc(-c3ccc(OS(=O)(=O)c4ccc(C(=O)O)c(O)c4)cc3)cc2)c1C` [Example 10, 4-[4'-(2-Benzyl-4,5-dimethyl-thiophen-3-yl)-biphenyl-4-yloxysulfonyl]-2-hydroxy-benzoic acid] was tested, and the IC50 was 32 nM. `O=C(O)c1ccc(S(=O)(=O)Oc2ccc(-c3ccc(-c4c(C(=O)c5ccccc5)oc5ccccc45)cc3)cc2[N+](=O)[O-])cc1O` [Example 8, 4-[4'-(2-Benzoyl-benzofuran-3-yl)-3-nitro-biphenyl-4-yloxysulfonyl]-2-hydroxy-benzoic acid] was tested, and the IC50 was 178 nM. `O=C(O)c1ccc(S(=O)(=O)Oc2ccc(-c3ccc(-c4c(Cc5ccccc5)sc5ccccc45)cc3)cc2)cc1O` [Example 11, 4-[4'-(2-Benzyl-benzo[b]thiophen-3-yl)-biphenyl-4-yloxysulfonyl]-2-hydroxy-benzoic acid] showed an IC50 of 28 nM. `O=C(O)c1ccc(S(=O)(=O)Oc2ccc(-c3ccc(-c4c(Cc5ccccc5)sc5ccccc45)cc3)cc2Br)cc1O` [Example 12, 4-[4'-(2-Benzyl-benzo[b]thiophen-3-yl)-3-bromo-biphenyl-4-yloxysulfonyl]-2-hydroxy-benzoic acid] gave an IC50 of 24 nM. For `O=C(O)c1ccc(S(=O)(=O)Oc2ccc(-c3ccc(-c4c(Cc5ccccc5)oc5ccccc45)cc3)cc2)cc1O` [Example 1, 4-[4'-(2-Benzyl-benzofuran-3-yl)-biphenyl-4-yloxysulfonyl]-2-hydroxy-benzoic acid], the IC50 was 39 nM. `Cc1cc(-c2ccc(-c3c(Cc4ccccc4)oc4ccccc34)cc2)cc(C)c1OS(=O)(=O)c1ccc(C(=O)O)c(O)c1` [Example 6, 4-[4'-(2-Benzyl-benzofuran-3-yl)-3,5-dimethyl-biphenyl-4-yloxysulfonyl]-2-hydroxy-benzoic acid] was tested, and the IC50 was 34 nM. With `O=C(O)c1ccc(S(=O)(=O)Oc2ccc(-c3ccc(-c4c(Cc5ccccc5)oc5ccccc45)cc3)cc2)cc1` [Example 3, 4-[4'-(2-Benzyl-benzofuran-3-yl)-biphenyl-4-yloxysulfonyl]-benzoic acid] the IC50 was 75 nM. `O=C(O)c1cccc(S(=O)(=O)Oc2ccc(-c3ccc(-c4c(Cc5ccccc5)oc5ccccc45)cc3)cc2)c1` [Example 4, 3-[4'-(2-Benzyl-benzofuran-3-yl)-biphenyl-4-yloxysulfonyl]-benzoic acid] showed an IC50 of 106 nM.

Each molecule was assayed on diabetic (ob/ob) mice (assay: Blood glucose lowering activity in diabetic (ob/ob) mice). Settings: Dose 25 mg/Kg, plasma glucose relative to vehicle treated mice, statistically (p < 0.05) significant.
Format: in vivo
Description: The procedures used and results obtained are briefly described below.
The non-insulin dependent diabetic (NIDDM) syndrome can be typically characterizes by obesity, hyperglycemia, abnormal insulin secretion, hyperinsulinemia and insulin resistance.
In each test procedure, mice [Male or female ob/ob (C57 B1/6J) and their lean litermates (ob/+ or +/+, Jackson Laboratories) ages 2 to 5 months (10 to 65 g)] of a similar age were randomized according to body weight into 4 groups of 10 mice. The mice were housed 5 per cage and are maintained on normal rodent chow with water ad libitum. Mice received test compound daily by gavage (suspended in 0.5 ml of 0.5% methyl cellulose); dissolved in the drinking water; or admixed in the diet. The dose of compounds given ranges from 2.5 to 200 mg/kg body weight/day. The dose is calculated based on the fed weekly body weight and is expressed as active moiety. […] Control mice received vehicle only.
On the morning of Day 4, 7 or 14 two drops of blood (approximetly 50 ul) were collected into sodium fluoride containing tubes either from the tail vein or after decapitation. […] The plasma was isolated by centrifugation and the concentration of glucose is measured enzymatically on an Abbott V.P. Analyzer.
For each mouse, the percentage change in plasma glucose on Day 4, 7 or 14 is calculated relative to the mean plasma glucose of the vehicle treated mice. […]
For `O=C(O)c1ccc(S(=O)(=O)Oc2c(Br)cc(-c3ccc(-c4c(Cc5ccccc5)sc5ccccc45)cc3)cc2Br)cc1O` [Example 13, 4-[4'-(2-Benzyl-benzo[b]thiophen-3-yl)-3,5-dibromo-biphenyl-4-yloxysulfonyl]-2-hydroxy-benzoic acid], the “% Change Glucose from Vehicle” value was -24.6^a %.
